# Test results published in PubChem BioAssay (NCI).
#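 How tested: cells in 96-well plates exposed to compound for 48 hours at five concentrations. The concentration for full growth arrest is given as TGI.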
# Columns and labels:
# Experiment in all cases: inhibition of tumour cell growth, NCI panel, 48 h
# CCRF-CEM leukemia = system: CCRF-CEM leukemia
# HCT-15 colon = system: HCT-15 colon
# HS 578T breast = system: HS 578T breast
# K-562 leukemia = system: K-562 leukemia
# LOX IMVI melanoma = system: LOX IMVI melanoma
# M14 melanoma = system: M14 melanoma
# MALME-3M melanoma = system: MALME-3M melanoma
# MCF7 breast = system: MCF7 breast
# MDA-MB-231 breast = system: MDA-MB-231 breast
# NCI-H226 lung = system: NCI-H226 lung
# NCI-H522 lung = system: NCI-H522 lung
# NCI/ADR-RES ovarian = system: NCI/ADR-RES ovarian
# OVCAR-3 ovarian = system: OVCAR-3 ovarian
# SK-OV-3 ovarian = system: SK-OV-3 ovarian
# SN12C renal = system: SN12C renal
# SW-620 colon = system: SW-620 colon
# U251 CNS = system: U251 CNS
# UACC-257 melanoma = system: UACC-257 melanoma
# UO-31 renal = system: UO-31 renal
# HOP-92 NSCLC = system: HOP-92 NSCLC
Structure (SMILES),TGI (CCRF-CEM leukemia) [µM],TGI (HCT-15 colon) [µM],TGI (HS 578T breast) [µM],TGI (K-562 leukemia) [µM],TGI (LOX IMVI melanoma) [µM],TGI (M14 melanoma) [µM],TGI (MALME-3M melanoma) [µM],TGI (MCF7 breast) [µM],TGI (MDA-MB-231 breast) [µM],TGI (NCI-H226 lung) [µM],TGI (NCI-H522 lung) [µM],TGI (NCI/ADR-RES ovarian) [µM],TGI (OVCAR-3 ovarian) [µM],TGI (SK-OV-3 ovarian) [µM],TGI (SN12C renal) [µM],TGI (SW-620 colon) [µM],TGI (U251 CNS) [µM],TGI (UACC-257 melanoma) [µM],TGI (UO-31 renal) [µM],TGI (HOP-92 NSCLC) [µM]
ONC1=Nc2ccccc2C(=S)N2CSCC12 (stereo not given),> 100,> 100,> 100,> 100,> 100,> 100,> 100,> 100,> 100,> 100,> 100,> 100,> 100,> 100,> 100,> 100,> 100,> 100,> 100,–
Oc1cc(N2CCCC2)ccc1/C=N/N1C(=S)N(c2ccccc2)C(=Nc2ccccc2)C1=Nc1ccccc1,–,> 100,> 100,> 100,–,> 100,> 100,> 100,90.3,> 100,> 100,> 100,> 100,> 100,> 100,> 100,> 100,> 100,> 100,> 100
COc1ccc(NC(C)=O)c(C(O)CCNC(C)=O)c1 (stereo not given),> 100,> 100,> 100,–,> 100,> 100,–,> 100,> 100,> 100,> 100,> 100,> 100,> 100,> 100,> 100,> 100,> 100,> 100,> 100
CCS(=O)(=O)CCn1c(=O)c2c(ncn2C)n(C)c1=O,> 100,> 100,> 100,> 100,> 100,> 100,> 100,> 100,> 100,–,> 100,> 100,> 100,–,> 100,> 100,> 100,> 100,> 100,> 100
N#CC(C#N)N=Nc1ccc(-c2nc3ccccc3o2)cc1,–,38.5,> 100,54.7,29,31.2,> 100,36.2,61.7,–,73.7,62.9,9.77,43.7,30.5,28.1,29.7,17.8,26,> 100
CC1(c2ccc(Cl)s2)CC(c2ccc(Cl)s2)=C(C#N)C(=C(C#N)C#N)N1 (stereo not given),> 100,35.4,61.6,> 100,44.3,36.4,43.1,39.9,47.1,> 100,–,38.8,28.4,30.5,45.7,52.4,33.2,43.4,34.5,38.8
CN(C)c1ccc(C2CC(c3ccc4ccccc4c3O)=NN2c2ccc([N+](=O)[O-])cc2[N+](=O)[O-])cc1 (stereo not given),94.3,> 100,> 100,–,–,> 100,> 100,> 100,> 100,> 100,> 100,> 100,> 100,> 100,> 100,> 100,> 100,> 100,> 100,> 100
O=C1NC(N2CCCCC2)=N/C1=C\c1ccc(Cl)cc1,> 100,> 100,> 100,–,> 100,> 100,> 100,> 100,> 100,96.1,> 100,> 100,> 100,> 100,> 100,> 100,> 100,> 100,> 100,85.5
CSc1nc2c(c(N3CCOCC3)n1)C(O)n1c(nc3ccccc31)S2 (stereo not given),> 100,> 100,92.7,–,> 100,> 100,> 100,> 100,> 100,–,> 100,> 100,> 100,> 100,> 100,> 100,> 100,> 100,> 100,> 100
COc1ccc(C2=C(N)c3ncccc3C2=O)cc1,> 100,> 100,> 100,> 100,> 100,> 100,> 100,> 100,> 100,> 100,–,> 100,> 100,> 100,> 100,> 100,> 100,> 10,> 100,> 10
O=C(CCc1ccccc1)n1cccc1CO,> 100,> 100,> 100,> 100,> 100,> 100,> 100,> 100,> 100,> 100,> 100,> 100,> 100,> 100,> 100,> 100,> 100,> 100,> 100,–
O=C1OC(C2(O)OC(=O)c3ccccc32)c2ccccc21 (stereo not given),–,> 100,> 100,–,> 100,> 100,–,> 100,> 100,> 100,> 100,> 100,> 100,> 100,> 100,> 100,> 100,> 100,> 100,> 100
